Experimental findings from US10251927B2, “Process to enhance the bioactivity of Ashwagandha extracts” (priority 2015, dated 2019) are described below.

The subject of assay [1] is wistar rats. Put plainly: Carrageenan induced paw edema model (Example 16). Type of assay: in vivo. Particulars: Rattus norvegicus, po, 10 mg/kg p.o. single dose, read-out: Percentage inhibition (%) of inflammation. The procedure: Fourty five wistar rats were divided into nine groups (n=5). Following treatment was given to the rats as single dose: […] The percentage inhibition of edema was calculated for each group with respect to the vehicle received control group of animals.
A general note: In the carrageenan paw model, swelling and tenderness develop within hours.

Assay [2] has as its system rats. Put plainly: Forced swim test after reserpine injection, different Ashwagandha extracts (Example 13). The assay is classed as in vivo, rat. The following applies: Reserpine 6 mg/kg i.p.; 10 mg/kg p.o.; vehicle 210, normal control 120. As for the experimental part:
44 rats were divided into eleven groups having 4 rats in each group. The animals were trained for swimming test (15 minutes) as pre-test session and then fasted overnight. To the fasted animals, reserpine (6 mg/kg) was injected i.p. to depress the animals. After 1 hour of reserpine injection, the test samples/standard was fed orally as designated dose.

Assay [3] concerns rats. As to the kind of experiment: Forced swim test after reserpine injection, enteric and nonenteric coated extracts (Example 14). Type of assay: in vivo, rat. Particulars: Reserpine 6 mg/kg i.p.; 10 mg/kg p.o.; vehicle 250, normal control 120. As for the experimental part:
92 rats were divided into twenty three groups. Each group had 4 rats. The animals were trained for swimming test (15 minutes) as pre-test session and then fasted overnight. To the fasted animals, reserpine (6 mg/kg) was injected i.p. to depress the animals. After 1 hour of reserpine injection, the test samples/standard was fed orally as designated dose. After 1 hour of test sample/standard, the rats were tested using forced swim test and duration of immobility in the 5 minutes test session was recorded.

For assay [4], the system named is rats. As to the kind of experiment: Forced swim test after reserpine, powder/extracts treated at different pH (Example 29). Particulars: Reserpine 6 mg/kg i.p.; 10 mg/kg p.o.; vehicle 250, normal control 120. Type of assay: in vivo, rat. As for the experimental part: Ashwagandha powder/extract was added to different buffer(pH 1,2,3,5,7 and 7.4) in 1:20 ratio of Ashwagandh powder/extract: buffer. The extract -buffer solution was kept in a waterbath at 37° C. for 2 hrs. The solution was neutralised by adding base or acid solution. The neutralised solution was concentrated and dried.
(§1) The animals were trained for swimming test (15 minutes) as pre-test session and then fasted overnight. To the fasted animals, reserpine (6 mg/kg) was injected i.p. to depress the animals. After 1 hour of reserpine injection, the test samples treated at different pH/standard were fed orally as designated dose. After 1 hour of test sample/standard, the rats were tested using forced swim test and duration of immobility in the 5 minutes test session was recorded. In this test more immobility time indicate that animal is more depressed or stressed.

Assay [5] concerns rats. Put plainly: Forced swim test after reserpine, normal (film), enteric and delayed release coating (Example 30). The assay is classed as in vivo, rat. Particulars: Reserpine 6 mg/kg i.p.; 10 mg/kg p.o.; test after 2 hour; vehicle 250, normal control 120. The procedure:
as §1, with “60 rats were divided into 15 groups comprising of 4 rats in each group. The” for “The”, “animals. Immediately after” for “animals. After 1 hour of”, “samples with normal (Hydroxy Propyl Cellulose; HPC), enteric (Eudragit) and delayed release (High percentage of Eudragit) coating/standard” for “samples treated at different pH/standard”, “designated doses.” for “designated dose.”, “After 2” for “After 1”

Assay [6] relates to rats. Put plainly: Forced swim test after reserpine, different percentage of enteric coating (Example 31). The assay is classed as in vivo, rat. Particulars: Reserpine 6 mg/kg i.p.; 10 mg/kg p.o.; test after 2 hour; vehicle 250, normal control 120. The procedure: as §1, with “Efficacy Study of Different Ashwagandha Extracts Granules with Different Percentage of Enteric Coating. 44 rats were divided into 11 groups comprising of 4 rats in each group. The” for “The”, “animals. Immediately after the” for “animals. After 1 hour of”, “samples (ashwagandha root powder) with” for “samples treated at”, “different percentage of enteric coating/standard” for “different pH/standard”, “After 2” for “After 1”
The test was repeated with different percentage of coated ashwagandha extract containing 3.5% withanolide glycosides and different percentage of coated ashwagandha extract containing 35% and 80% withanolide glycosides.

In assay [7] the test system is Albino Wistar rats. As to the kind of experiment: Anoxia stress tolerance test (Example 16). Type of assay: in vivo, rat. Particulars: 2 mg/kg p.o. As for the experimental part:
Albino Wistar rats of either sex weighing 150-220 g were selected and divided into 11 groups of six each and following treatment was given after one week of acclimatization:
Animals were treated as shown above for the 3 weeks. At the end of 1st, 2nd and 3rd week i.e. on 7th, 14th and 21st day 1 h after the treatment stress was induced by placing each animal individually in the hermetic vessel of 1 L capacity to record anoxia tolerance time. The time duration of entry of the animal into the hermetic vessel and the appearance of the first convulsion was taken as time of anoxia.

In assay [8] the test system is streptozotocin induced diabetic rats. As to the kind of experiment: Antidiabetic activity in streptozotocin induced diabetic rats (Example 32). The assay is classed as in vivo, rat. The following applies: STZ diabetic rats. As for the experimental part:
Male/Female albino wistar rats were maintained as per standard guidelines: housed in polypropylene cages, under 12 hour artificial light and dark cycles at a temperature of 24±2° C., given a standard pellet diet and water ad libitum. The animals were acclimatized to the animal house conditions for a week before beginning the experiment. Diabetes was induced by injecting streptozotocin 35mg/kg dissolved in 0.1 M citrate buffer of pH 4.5, intra-peritoneally. […] Animals with FBG above 200 mg/dl were considered diabetic. The diabetic animals were randomly divided into 13 groups of six animals each. One normal group was also included comprising of six normal rats.

The test system is the same in assay [9]. As to the kind of experiment: Antidiabetic activity of coated extracts in different doses in streptozotocin induced diabetic rats (Example 33). The following applies: STZ diabetic rats. Type of assay: in vivo, rat. The procedure: Different Ashwagandha extracts with coating in different dosages was evaluated for antidiabetic activity in experimental rats. Male/Female albino wistar rats were maintained as per standard guidelines: housed in polypropylene cages, under 12 hour artificial light and dark cycles at a temperature of 24±2° C., given a standard pellet diet and water ad libitum. The animals were acclimatized to the animal house conditions for a week before beginning the experiment. Diabetes was induced by injecting streptozotocin 35 mg/kg dissolved in 0.1 M citrate buffer of pH 4.5, intra-peritoneally. Five days after induction of diabetes (day 1 of the study), animals were fasted for 12 hours and the fasting blood glucose level (FBG) was estimated for diagnosing diabetic rats. Animals with FBG above 200 mg/dl were considered diabetic. The diabetic animals were randomly divided into 13 groups of 4 animals each.
Fasting blood glucose level and body weight of rats was measured initially and then at Day 7, Day 14, Day 21 and Day 28 of the study.

Where [10] appears, read: before treatment, group 0.5 mg/kg.

Where “and” joins values, the source holds several entries; their conditions need not be identical. Equal values may be shown once. Read-outs that look alike come from different tables or passages of the source.

Broadly, the inhibition is the change of the read-out against control, counted positive when it falls. Consider `COc1ccc2c(c1)c(CC(=O)O)c(C)n2C(=O)c1ccc(Cl)cc1` [Indomethacin], for which the inhibition at 10 mg/kg was found to be 28% in assay [1] (0.5 hr), 65% in [1] (1 hr), 80% in [1] (2 hr) and 86% in [1] (3 hr).
As to `CNCCC(Oc1ccc(C(F)(F)F)cc1)c1ccccc1` (centres unmarked) [Fluoxetine], the “Immobility time” value in [2] was 122 s; in assay [3], 122 s; in [4], 122 s and 120 s; in assay [5] it was 120 s; in [6], 120 s.
As for `CN1C(=O)CN=C(c2ccccc2)c2cc(Cl)ccc21` [Diazepam], the “Duration of anoxia stress tolerance” value in assay [7] (First week) is 34.50 min; in assay [7] (Second week), 37.33 min; in assay [7] (Third week) it was 37.00 min.
For the compound `COc1ccc(Cl)cc1C(=O)NCCc1ccc(S(=O)(=O)NC(=O)NC2CCCCC2)cc1` [Glibenclamide], the “Fasting blood glucose (FBG) level after 28 days” value in [8] (0.5 mg/kg for 28 days) amounted to 124 mg/dL; in assay [9] (0.5 mg/kg for 28 days), 125 mg/dL. The “Fasting Blood Glucose level” value in assay [8] (Day 1 (Initial), standard drug) amounted to 422 mg/dL; in [8] (Day 7, standard drug), 380 mg/dL; in assay [8] (Day 14, standard drug), 245 mg/dL; in assay [8] (Day 21, standard drug), 196 mg/dL; in [8] (Day 28, standard drug), 124 mg/dL; in [9] (Day 1 (Initial), standard drug), 423 mg/dL. The “Fasting Blood Glucose level” value in [9] (Day 7, standard drug) was found to be 381 mg/dL; in assay [9] (Day 14, standard drug), 246 mg/dL; in [9] (Day 21, standard drug), 197 mg/dL; in [9] (Day 28, standard drug) it was 125 mg/dL. For the same compound, the “Fasting blood glucose (FBG) level, initial” value in assay [8] (setting [10]) was 422 mg/dL; in assay [9] (setting [10]), 423 mg/dL.
